Measurements as given in patent EP0173944A2, “Enhanced inhibition of yeast cell growth” (MILES INC., priority 1984, dated 1986).
Read-outs that look alike come from different tables or passages of the source. *1 amine or outer side, *2 acyl side, *3 side chain or, on linkers, in order; H or OH if unused. Where a SMILES comes first, the peptide text is derived from it. Bridges are numbered along the chain shown (N, C = ends). Roman numbers before positions name the chains, in order. [ ]: non-standard residue; d: D form. Actinocin(9to1) = Cc1c2oc3c(C)ccc(C(=O)[*:1])c3nc-2c(C(=O)[*:2])c(N)c1=O; NMeV = CN[C@H](C(=O)O)C(C)C; Sar = CNCC(=O)O

Columns and labels:
[1] = system: Saccharomyces cerevisiae strain S288C; test: Filter disc zone-of-inhibition test of yeast growth with or without PBN in the agar overlay; assay type: cell-based; settings: for effect on yeast growth, control sample / Area of Zone of Inhibition, Control: no PBN; for effect on yeast growth, control sample / effect on yeast growth, PBN-containing sample: kanamycin 5.0, streptomycin 2.5, chloramphenicol 0.25 mg/disc, data not shown in Table 1; for effect on yeast growth, PBN-containing sample: with PBN; for inhibition of yeast growth in relation to the carbon source: glycerol or glucose as the carbon source; for Area of Zone of Inhibition, Control / Area of Zone of Inhibition, PBN (4.8 A260 units): 30°C, 48 hours; for Area of Zone of Inhibition, PBN (4.8 A260 units): with PBN 4.8 A260 units; for Area of Zone of Inhibition: rifampicin 2.5 mg/disc
Method: (§1) A convenient method for ascertaining the inhibition of growth of yeast cells is as follows. A sample of yeast cells (about 10 7 cells) from a viable overnight culture is added to a molten agar-containing growth medium to which has been added the desired amount of PBN. The resulting suspension is mixed rapidly and then poured onto an agar plate containing a suitable growth medium. The molten agar is allowed to solidify and sterile filter discs are placed on the surface. The solution of antibiotics to be tested are then pipetted onto the discs (50 microliters per disc). The plates are incubated and "read" for antibiotic sensitivity as determined by the zone of inhibition around the disc.
(§2) Saccharomyces cerevisiae strain S288C was grown for 16 hours at 30°C in a liquid medium consisting of 1% (w/v) yeast extract, 2% (w/v) peptone, and 2% (w/v) glucose (YPD medium). One drop of cell suspension from this culture (about 5 x 10^6 to about 1 X 10 ^7 cells) was added to each of 2 tubes containing 3 ml of 0.7% agar, 1% yeast extract, 2% peptone, 2% glycerol (or alternatively 2% glucose as a carbon source) and 0.25 ml of 5 M NaCl maintained at 45-50°C to prevent the agar from solidifying. One tube contained., in addition to the above, 0.5 ml of PBN solution (4.8 A260 units) prepared as described above. The other tube served as a control. The tube contents were mixed rapidly and poured onto a Petri plate containing 25 ml of 2% agar, 1% yeast extract, 2% peptone, and 2% glycerol (YPG medium). After the agar had solidified, sterile filter disks (0.5 inch diameter) were placed on the surface of the agar and solutions of various antibiotics to be tested were pipetted onto the disks. The plates were incubated at 30°C for 48 hours and the inhibition of growth was determined by measuring the area of a zone of clearing formed around the discs (minus the area of the disc).
The procedure described in Example I was repeated with Saccharomyces cerevisiae strain S288C except that increasing amounts of PBN were used. The rifampicin concentration on the discs was maintained at 2.5 mg/disc throughout.

[2] = system: Candida albicans (ATCC 10231); test: as above; assay type: cell-based
Method: as §1, §2
The procedure described in Example I was repeated with Candida albicans (ATCC 10231). Inhibition of growth of this organism by G-418, rifampicin, cycloheximide and actinomycin D in the presence and absence (control) of PBN was determined.

[3] = no PBN, G-418 5.0, rifampicin 2.5, cycloheximide 0.5, actinomycin D 0.5 mg/disk
[4] = with PBN 3.0 A260 units per plate in YPD medium, G-418 5.0, rifampicin 2.5, cycloheximide 0.5, actinomycin D 0.5 mg/disk
[5] = YPG medium, erythromycin 0.5, G-418 5.0, rifampicin 2.5 mg/disk
[6] = YPD medium used for plating, 0.5 mg/disk in dimethylsulfoxide

Structure (SMILES)	effect on yeast growth, control sample [1]	effect on yeast growth, PBN-containing sample [1]	Area of Zone of Inhibition, Control [2, 3] [mm^2]	Area of Zone of Inhibition, PBN [2, 4] [mm^2]	inhibition of yeast growth in relation to the carbon source [1]	Area of Zone of Inhibition, Control [1, 5] [mm^2]	Area of Zone of Inhibition, PBN (4.8 A260 units) [1, 5] [mm^2]	also measured
[H]/N=C(/N)N[C@H]1[C@H](O)[C@@H](O)[C@H](O[C@@H]2O[C@@H](C)[C@](O)(C=O)[C@H]2O[C@@H]2O[C@@H](CO)[C@H](O)[C@@H](O)[C@@H]2NC)[C@@H](N/C(N)=N\[H])[C@@H]1O [streptomycin]	no effect	no effect						
CN[C@@H]1[C@@H](O)[C@@H](O[C@@H]2[C@@H](O)[C@H](O[C@H]3O[C@H]([C@@H](C)O)[C@@H](O)[C@H](O)[C@H]3N)[C@@H](N)C[C@H]2N)OC[C@]1(C)O [G-418]			20	346	exhibited inhibition of yeast growth regardless of the carbon source	113	490	
CO[C@H]1/C=C/O[C@@]2(C)Oc3c(C)c(O)c4c(O)c(c(/C=N/N5CCN(C)CC5)c(O)c4c3C2=O)NC(=O)/C(C)=C\C=C\[C@H](C)[C@H](O)[C@@H](C)[C@@H](O)[C@@H](C)[C@H](OC(C)=O)[C@@H]1C [Rifampicin]			<3	3		<3	95	Area of Zone of Inhibition ([1]; PBN 0.0 A260 units): 0 mm^2; Area of Zone of Inhibition ([1]; PBN 1.0 A260 units): 3.0 mm^2; Area of Zone of Inhibition ([1]; PBN 2.0 A260 units): 20.0 mm^2; Area of Zone of Inhibition ([1]; PBN 3.0 A260 units): 38.5 mm^2; Area of Zone of Inhibition ([1]; PBN 4.0 A260 units): 38.5 mm^2; Area of Zone of Inhibition ([1]; PBN 5.0 A260 units): 50.0 mm^2; Area of Zone of Inhibition ([1]; PBN 6.0 A260 units): 64.0 mm^2; Area of Zone of Inhibition ([1]; PBN 7.0 A260 units): 78.5 mm^2; Area of Zone of Inhibition ([1]; PBN 8.0 A260 units): 71.0 mm^2; Area of Zone of Inhibition ([1]; PBN 9.0 A260 units): 78.5 mm^2; Area of Zone of Inhibition ([1]; PBN 10.0 A260 units): 95.0 mm^2
Cc1c2oc3c(C)ccc(C(=O)N[C@@H]4C(=O)N[C@H](C(C)C)C(=O)N5CCC[C@H]5C(=O)N(C)CC(=O)N(C)[C@@H](C(C)C)C(=O)O[C@@H]4C)c3nc-2c(C(=O)N[C@@H]2C(=O)N[C@H](C(C)C)C(=O)N3CCC[C@H]3C(=O)N(C)CC(=O)N(C)[C@@H](C(C)C)C(=O)O[C@@H]2C)c(N)c1=O [Actinomycin D] (I: T[dV]P[Sar][NMeV] / II: T[dV]P[Sar][NMeV]; ester I:1-I:C, II:1-II:C; linker I:N-II:N via Actinocin(9to1))			<3	452	exhibited inhibition of yeast growth regardless of the carbon source			Area of Zone of Inhibition, Control [1, 6]: <3 mm^2; Area of Zone of Inhibition, PBN (4.8 A260 units) [1, 6]: 314 mm^2
O=C(N[C@H](CO)[C@H](O)c1ccc([N+](=O)[O-])cc1)C(Cl)Cl [chloramphenicol]	no effect	no effect						
CC[C@H]1OC(=O)[C@H](C)[C@@H](O[C@H]2C[C@@](C)(OC)[C@@H](O)[C@H](C)O2)[C@H](C)[C@@H](O[C@@H]2O[C@H](C)C[C@H](N(C)C)[C@H]2O)[C@](C)(O)C[C@@H](C)C(=O)[C@H](C)[C@@H](O)[C@]1(C)O [Erythromycin]					effective in this test system only when glycerol (rather than glucose) is used as the carbon source	80	227	
NC[C@H]1O[C@H](O[C@H]2[C@H](O)[C@@H](O[C@H]3O[C@H](CO)[C@@H](O)[C@H](N)[C@H]3O)[C@H](N)C[C@@H]2N)[C@H](O)[C@@H](O)[C@@H]1O [kanamycin]	no effect	no effect						
C[C@@H]1C[C@@H]([C@H](O)CC2CC(=O)NC(=O)C2)C(=O)[C@@H](C)C1 [Cycloheximide]								Area of Zone of Inhibition, Control [2]: <3 mm^2; Area of Zone of Inhibition, PBN [2]: 64 mm^2
